Measured values reported in patent publication US20210161997A1, “TREATING DISEASES VIA TARGETED MODULATION OF GENE SIGNALING NETWORKS” (Camp4 Therapeutics Corporation, priority 2018, published 2021).
Counter-ions that a name gives are not always drawn. Like-named read-outs stand apart in the source and are kept apart here.

How the values were obtained:
Format in all cases: cell-based
APOL1 = assay: RNA-seq of APOL1 expression in compound-treated primary human hepatocytes; details: for mrna remaining at 10 µM: Homo sapiens, Hepatocyte, 16 h, read-out: APOL mRNA linear fold change
Protocol: (§1) Human hepatocytes were obtained from two donors from Massachusetts General Hospital, namely MGH54 and MGH63, and one donor from Lonza, namely HUM4111B. Cryopreserved hepatocytes were cultured in plating media for 16 hours, transferred to maintenance media for 4 hours. Cultured on serum-free media for 2 hours, then a compound was added. The hepatocytes were maintained on the serum-free media for 16 hours prior to gene expression analysis. Primary human hepatocytes were stored in the vapor phase of a liquid nitrogen freezer (about −130° C.).
(§2) Human hepatocytes cultured as described above were plated in 24-well format, adding 375,000 cells per well in a volume of 500 ul plating medium. Four hours before treatment, cells were washed with PBS and the medium was changed to either: fresh maintenance medium (complete) or modified maintenance medium.
(§3) Compound stocks were prepared at 1000× final concentration and added in a 2-step dilution to the medium to reduce risk of a compound precipitating out of solution when added to the cells, and to ensure reasonable pipetting volumes. One at a time, each compound was first diluted 10-fold in warm (about 37° C.) modified maintenance medium (initial dilution=ID), mixed by vortexing, and the ID was diluted 100-fold into the cell culture (e.g. 5.1 ul into 1 well of a 24-well plate containing 0.5 mL medium). The plate was mixed by carefully swirling and after all wells were treated and returned to the incubator overnight. If desired, separate plates/wells were treated with vehicle-only controls and/or positive controls. If using multi-well plates, controls were included on each plate. After about 18 hours, cells were harvested for further analysis, e.g., ChIP-seq, RNA-seq, ATAC-seq, etc.
(§4) This protocol is a modified version of the following protocols: MagMAX mirVana Total RNA Isolation Kit User Guide (Applied Biosystems #MAN0011131 Rev B.0), NEBNext Poly(A) mRNA Magnetic Isolation Module (E7490), and NEBNext Ultra Directional RNA Library Prep Kit for Illumina (E7420) (New England Biosystems #E74901).
(§5) The MagMAX mirVana kit instructions (the section titled “Isolate RNA from cells” on pages 14-17) were used for isolation of total RNA from cells in culture. Two hundred μl of Lysis Binding Mix was used per well of the multiwell plate containing adherent cells (usually a 24-well plate).
(§6) For mRNA isolation and library prep, the NEBNext Poly(A) mRNA Magnetic Isolation Module and Directional Prep kit was used. RNA isolated from cells above was quantified, and prepared in […] of each sample in 50 μl of nuclease-free water. This protocol may be run in microfuge tubes or in a 96-well plate.
(§7) All pass filter reads from each sample were mapped against the human genome (assembly GRCh38/GCA_000001405.15 “no alt” analysis set merged with hs38d1/GCA_000786075.2) using two pass mapping via STAR version 2.5.3a (alignment parameters alignIntronMin=20; alignIntronMax=1000000; outFilterMismatchNmax=999; outFilterMismatchNoverLmax=0.05; outFilterType=BySJout; outFilterMultimapNmax=20; alignSJoverhangMin=8; alignSJDBoverhangMin=1; alignMatesGapMax=1000000) (Dobin et al., Bioinformatics (2012) 29(1):15-21). Genomic alignments were converted to transcriptome alignments based on reference transcript annotations from the Human GENCODE Gene Set release 24 (Harrow et al., Genome Res. (2012) 22(9): 1760-1774). Using unique and multimapped transcriptomic alignments, gene-level abundance estimates were computed using RSEM version 1.3.0 (Li and Dewey, BMC Bioinformatics (2011) 12:323) in a strand-aware manner, and including confidence interval sampling calculations, to arrive at posterior mean estimates (PME) of abundances (counts and normalized FPKM—fragments per kilobase of exon per million mapped fragments) from the underlying Bayesian model. Standard QC were applied (read integrity, mapping statistics, library complexity, fragment bias) to remove unsatisfactory samples.

CPOX = assay: RNA-seq of CPOX expression in compound-treated primary human hepatocytes
Protocol: as §1, §2, §3, §4, §5, §6
(§8) Standard QC were applied (read integrity, mapping statistics, library complexity, fragment bias) to remove unsatisfactory samples. […] Log 2 fold change and significance values were computed using PME count data (with replicates explicitly modeled versus pan-experiment controls), median ratio normalized, using maximum likelihood estimation rather than maximum a posteriori, and disabling the use of Cook's distance cutoff when determining acceptable adjusted p-values. […] RNA-seq signals were also normalized by read depth and visualized using the UCSC browser.
(§9) To identify small molecules that modulate target gene expression, primary human hepatocytes were prepared as a monoculture, and at least one small molecule compound was applied to the cells.
(§10) RNA-seq was performed to determine the effects of the compounds on the expression of the target genes in hepatocytes. Fold change was calculated by dividing the level of expression in the cell system that had been perturbed by the level of expression in an unperturbed system. Changes in expression having a p-value ≤0.05 were considered significant.
Significance was defined as an FPKM ≥0.5 a log 2(fold change) ≥0.3, and a q-value of ≤0.05.

SLC37A4 = assay: RNA-seq of SLC37A4 expression in compound-treated primary human hepatocytes
Protocol: as §1, §2, §3, §4, §5, §6, §7

UGT1A1 = assay: RNA-seq of UGT1A1 expression in compound-treated primary human hepatocytes
Procedure, shortened: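 Cryopreserved primary human hepatocytes from three donors were plated in 24-well format, then treated with compound diluted from 1000× stocks in serum-free maintenance medium for about 16–18 h. Poly(A) RNA-seq log2 fold change was computed against vehicle/pan-experiment controls. Significance required FPKM ≥1, log2FC ≥0.5 and q ≤0.05.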

FN1 = assay: RNA-seq of FN1 expression in compound-treated primary human hepatocytes; details: perturbed vs unperturbed, significance FPKM ≥1, log 2(fold change) ≥0.5, q-value ≤0.05
Protocol: as §1, §2, §3, §4, §5, §6, §7

ANGPTL3 = assay: RNA-seq of ANGPTL3 expression in compound-treated primary human hepatocytes; details: additional compounds (Table 13), linear fold change
Procedure, shortened: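 Cryopreserved primary human hepatocytes from three donors, plated at 375,000 cells/well, switched to complete or modified maintenance medium, then dosed with compound (stocks at 1000× final) for about 18 h. Poly(A) mRNA was sequenced directionally, mapped to GRCh38 with STAR, and gene-level abundance (counts, FPKM) estimated with RSEM against GENCODE 24.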

MECP2 mRNA [1] = assay: MECP2 mRNA in primary human hepatocytes (donor 1, donor 2); details: human hepatocytes donor-2, average fold change
Protocol: as §1, §2, §3
Samples were amplified using Taqman probes from ThermoFisher.

SERPINC1 mRNA = assay: Quantitative PCR of SERPINC1 mRNA in primary human hepatocytes (Lonza Hu4282) treated with compounds; details: 72 h treatment, HU4282 primary human hepatocytes, relative to DMSO control (FIG. 7)
MECP2 mRNA [2] = assay: MECP2 mRNA in stellate cells; details: average fold change
LECT2 = assay: RNA-seq of LECT2 expression in compound-treated primary human hepatocytes
Protocol: as §1, §2, §3, §4, §5, §6, §8, §9, §10
Significance was defined as an FPKM ≥1, a log 2(fold change) ≥0.5, and a q-value of ≤0.05 for all targets except for CPOX.

## CC1OC2(CS1)CN1CCC2CC1 (stereo not shown) [CPD341_Cevimeline, Cevimeline]
APOL1; RNAseq, 10 uM dose (Table 20)
  mrna remaining at 10 µM: 65.5%

## CC[C@@H](CO)NC(=O)[C@@H]1C=C2c3cccc4[nH]cc(c34)C[C@H]2N(C)C1 [CPD388_Methylergonovine, Methylergonovine]
APOL1
  mrna remaining at 10 µM: 64.2%

## Clc1ccc(C(c2ccccc2Cl)C(Cl)Cl)cc1 (stereo not shown) [CPD446_Mitotane, Mitotane]
APOL1; RNAseq, 10 uM dose (Table 20)
  mrna remaining at 10 µM: 65.5%

## C[C@]12C=CC(=O)C=C1CC[C@@H]1[C@@H]2[C@@H](O)C[C@@]2(C)[C@H]1CC[C@]2(O)C(=O)CO [CPD447_Prednisolone, Prednisolone]
APOL1; RNAseq, 10 uM dose (Table 20)
  mrna remaining at 10 µM: 65.5%

## CC(C)C[C@H](NC(=O)[C@H](Cc1ccccc1)NC(=O)c1cnccn1)B(O)O [CPD569_Bortezomib (PS-341), Bortezomib]
APOL1; RNAseq, 10 uM dose (Table 20)
  mrna remaining at 10 µM: 63.7%

## [Cl][Co][Cl] [Cobalt chloride]
CPOX
  CPOX Fold change (Log2): 0.49 Log2
SLC37A4
  SLC37A4 Fold Change (Log2): 1.09 Log2

## C[C@]12C[C@H](O)[C@H]3[C@@H](CCC4=CC(=O)CC[C@@]43C)[C@@H]1CC[C@@H]2C(=O)CO [Corticosterone]
CPOX; RNA-seq, primary human hepatocytes, significance FPKM ≥0.5, log 2(fold change) ≥0.3, q-value ≤0.05
  CPOX Fold change (Log2): 0.36 Log2
UGT1A1
  UGT1A1 Fold Change (Log2): 0.86 Log2
SLC37A4
  SLC37A4 Fold Change (Log2): 0.73 Log2

## C[C@@H](Oc1cc(-c2cnn(C3CCNCC3)c2)cnc1N)c1c(Cl)ccc(F)c1Cl [Crizotinib]
FN1
  FN1 Fold Change (Log2): −1.45 Log2
UGT1A1
  UGT1A1 Fold Change (Log2): 1.18 Log2
APOL1; RNA-seq, primary human hepatocytes
  APOL1 Fold Change (Log2): −0.56 Log2

## C[C@@H]1C[C@H]2[C@@H]3CCC4=CC(=O)C=C[C@]4(C)[C@@]3(F)[C@@H](O)C[C@]2(C)[C@@]1(O)C(=O)CO [Dexamethasone]
SLC37A4
  SLC37A4 Fold Change (Log2): 0.66 Log2

## O=C1NC(=O)/C(=C/c2ccc3nccc(-c4ccncc4)c3c2)S1 [GSK1059615]
APOL1; RNAseq, 10 uM dose (Table 20)
  APOL mRNA linear fold change: 0.5105
ANGPTL3
  ANGPTL3-LINEAR FOLD CHANGE: 0.1856

## COc1ccc(-c2cc3c(C)nc(N)nc3n([C@H]3CC[C@H](OCCO)CC3)c2=O)cn1 [PF-04691502]
MECP2 mRNA [1]; compound 1 uM
  Human hep donor-2 MECP2 (Avg_FC) 1 uM: 1.13
MECP2 mRNA [1]; compound 10 uM
  Human hep donor-2 MECP2 (Avg_FC) 10 uM: 1.88
SERPINC1 mRNA
  SERPINC1 mRNA change in response to compound: dose dependent upregulation
MECP2 mRNA [2]; compound 1 uM
  Stellate MECP2 (Avg_FC) 1 uM: 1.27
MECP2 mRNA [2]; compound 10 uM
  Stellate MECP2 (Avg_FC) 10 uM: 2.78
APOL1; RNAseq, 10 uM dose (Table 20)
  APOL mRNA linear fold change: 0.5141
ANGPTL3
  ANGPTL3-LINEAR FOLD CHANGE: 0.4506

## COc1cc(Nc2ncc(F)c(Nc3ccc4c(n3)N(COP(=O)(O)O)C(=O)C(C)(C)O4)n2)cc(OC)c1OC [R788 (fostamatinib disodium hexahydrate), fostamatinib disodium hexahydrate]
UGT1A1
  UGT1A1 Fold Change (Log2): 0.85 Log2
SLC37A4
  SLC37A4 Fold Change (Log2): 0.74 Log2

## CN[C@H]1CC[C@@H](c2ccc(Cl)c(Cl)c2)c2ccccc21 [Sertraline HCl]
APOL1; RNAseq, 10 uM dose (Table 20)
  mrna remaining at 10 µM: 64.6%
ANGPTL3
  ANGPTL3-LINEAR FOLD CHANGE: 0.3816

## CCN(CC)CCNC(=O)c1c(C)[nH]c(/C=C2\C(=O)Nc3ccc(F)cc32)c1C [Sunitinib]
APOL1; RNAseq, 10 uM dose (Table 20)
  mrna remaining at 10 µM: 62%
ANGPTL3
  ANGPTL3-LINEAR FOLD CHANGE: 0.3035

## C[C@]12C=CC(=O)C=C1CC[C@@H]1[C@@H]2C(=O)C[C@@]2(C)[C@H]1CC[C@]2(O)C(=O)CO [prednisone]
LECT2
  LECT2 Fold Change (Log2): −0.65 Log2
CPOX
  CPOX Fold change (Log2): 0.44 Log2
SLC37A4
  SLC37A4 Fold Change (Log2): 1.18 Log2

## IGF-1: IGF-1R activator
SLC37A4
  SLC37A4 Fold Change (Log2): 0.60 Log2

## TNF-a
SLC37A4
  SLC37A4 Fold Change (Log2): 0.64 Log2
